Experimental data from PubChem BioAssay (NCI).
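The compound was tested at five concentrations on cells cultured in 96-well plates, with a 48-hour exposure period. TGI is the concentration that stops growth completely.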

Tests used:
Assay in all cases: DTP human tumour cell line panel, 48 h
KM12 colon = test system: KM12 colon
SK-MEL-28 melanoma = test system: SK-MEL-28 melanoma
BT-549 breast = test system: BT-549 breast
SNB-19 CNS = test system: SNB-19 CNS
EKVX NSCLC = test system: EKVX NSCLC
UACC-62 melanoma = test system: UACC-62 melanoma
SF-268 CNS = test system: SF-268 CNS
NCI-H460 lung = test system: NCI-H460 lung
CCRF-CEM leukemia = test system: CCRF-CEM leukemia
MDA-MB-231 breast = test system: MDA-MB-231 breast
UACC-257 melanoma = test system: UACC-257 melanoma
HCT-116 colon = test system: HCT-116 colon
A498 renal = test system: A498 renal
HOP-92 NSCLC = test system: HOP-92 NSCLC
NCI-H23 lung = test system: NCI-H23 lung
HCC-2998 colon = test system: HCC-2998 colon
NCI/ADR-RES ovarian = test system: NCI/ADR-RES ovarian
OVCAR-4 ovarian = test system: OVCAR-4 ovarian
786-0 renal = test system: 786-0 renal
SK-MEL-2 melanoma = test system: SK-MEL-2 melanoma
COLO 205 colon = test system: COLO 205 colon
HS 578T breast = test system: HS 578T breast
OVCAR-8 ovarian = test system: OVCAR-8 ovarian
NCI-H522 lung = test system: NCI-H522 lung
HL-60(TB) leukemia = test system: HL-60(TB) leukemia
IGROV1 ovarian = test system: IGROV1 ovarian
M14 melanoma = test system: M14 melanoma
MCF7 breast = test system: MCF7 breast
SR leukemia = test system: SR leukemia
NCI-H226 lung = test system: NCI-H226 lung
K-562 leukemia = test system: K-562 leukemia
UO-31 renal = test system: UO-31 renal
U251 CNS = test system: U251 CNS
TK-10 renal = test system: TK-10 renal
HOP-62 NSCLC = test system: HOP-62 NSCLC
T-47D breast = test system: T-47D breast
HCT-15 colon = test system: HCT-15 colon
SK-MEL-5 melanoma = test system: SK-MEL-5 melanoma
PC-3 prostate = test system: PC-3 prostate
SW-620 colon = test system: SW-620 colon
MDA-N = test system: MDA-N
A549 NSCLC = test system: A549 NSCLC
SNB-75 CNS = test system: SNB-75 CNS
ACHN renal = test system: ACHN renal
RXF 393 renal = test system: RXF 393 renal
SF-295 CNS = test system: SF-295 CNS
OVCAR-3 ovarian = test system: OVCAR-3 ovarian
SN12C renal = test system: SN12C renal
CAKI-1 renal = test system: CAKI-1 renal
OVCAR-5 ovarian = test system: OVCAR-5 ovarian
SF-539 CNS = test system: SF-539 CNS
MOLT-4 leukemia = test system: MOLT-4 leukemia
LOX IMVI melanoma = test system: LOX IMVI melanoma
HT29 colon = test system: HT29 colon
DU-145 prostate = test system: DU-145 prostate
RPMI-8226 leukemia = test system: RPMI-8226 leukemia
MDA-MB-435 = test system: MDA-MB-435
SK-OV-3 ovarian = test system: SK-OV-3 ovarian
MALME-3M melanoma = test system: MALME-3M melanoma

Cn1c(=O)c2c(nc3n(Cc4ccccc4)c(=O)c(Br)cn23)n(C)c1=O
TGI (KM12 colon): > 100 µM
TGI (SK-MEL-28 melanoma): > 100 µM
TGI (BT-549 breast): > 100 µM
TGI (SNB-19 CNS): > 100 µM
TGI (EKVX NSCLC): > 100 µM
TGI (UACC-62 melanoma): > 100 µM
TGI (SF-268 CNS): > 100 µM
TGI (NCI-H460 lung): > 100 µM
TGI (CCRF-CEM leukemia): > 100 µM
TGI (MDA-MB-231 breast): > 100 µM
TGI (UACC-257 melanoma): > 100 µM
TGI (HCT-116 colon): > 100 µM
TGI (A498 renal): > 100 µM
TGI (HOP-92 NSCLC): > 100 µM
TGI (NCI-H23 lung): > 100 µM
TGI (HCC-2998 colon): > 100 µM
TGI (NCI/ADR-RES ovarian): > 100 µM
TGI (OVCAR-4 ovarian): > 100 µM
TGI (786-0 renal): > 100 µM
TGI (SK-MEL-2 melanoma): > 100 µM
TGI (COLO 205 colon): > 100 µM
TGI (HS 578T breast): > 100 µM
TGI (OVCAR-8 ovarian): > 100 µM
TGI (NCI-H522 lung): > 100 µM
TGI (HL-60(TB) leukemia): > 100 µM
TGI (IGROV1 ovarian): > 100 µM
TGI (M14 melanoma): > 100 µM
TGI (MCF7 breast): > 100 µM
TGI (SR leukemia): > 100 µM
TGI (NCI-H226 lung): > 100 µM
TGI (K-562 leukemia): > 100 µM
TGI (UO-31 renal): > 100 µM
TGI (U251 CNS): > 100 µM
TGI (TK-10 renal): > 100 µM
TGI (HOP-62 NSCLC): > 100 µM
TGI (T-47D breast): > 100 µM
TGI (HCT-15 colon): > 100 µM
TGI (SK-MEL-5 melanoma): > 100 µM
TGI (PC-3 prostate): > 100 µM
TGI (SW-620 colon): > 100 µM
TGI (MDA-N): > 100 µM
TGI (A549 NSCLC): > 100 µM
TGI (SNB-75 CNS): > 100 µM
TGI (ACHN renal): > 100 µM
TGI (RXF 393 renal): > 100 µM
TGI (SF-295 CNS): > 100 µM
TGI (OVCAR-3 ovarian): > 100 µM
TGI (SN12C renal): > 100 µM
TGI (CAKI-1 renal): > 100 µM
TGI (OVCAR-5 ovarian): > 100 µM
TGI (SF-539 CNS): > 100 µM
TGI (MOLT-4 leukemia): > 100 µM
TGI (LOX IMVI melanoma): > 100 µM
TGI (HT29 colon): > 100 µM
TGI (DU-145 prostate): > 100 µM
TGI (RPMI-8226 leukemia): > 100 µM
TGI (MDA-MB-435): > 100 µM

Nc1nccc2c1ncn2[C@H]1C[C@H](O)[C@@H](CO)O1
TGI (KM12 colon): > 100 µM
TGI (SK-MEL-28 melanoma): > 100 µM
TGI (BT-549 breast): > 100 µM
TGI (SNB-19 CNS): > 100 µM
TGI (UACC-62 melanoma): > 100 µM
TGI (NCI-H460 lung): > 100 µM
TGI (CCRF-CEM leukemia): > 100 µM
TGI (MDA-MB-231 breast): > 100 µM
TGI (UACC-257 melanoma): > 100 µM
TGI (HCT-116 colon): > 100 µM
TGI (A498 renal): > 100 µM
TGI (HOP-92 NSCLC): > 100 µM
TGI (NCI-H23 lung): > 100 µM
TGI (HCC-2998 colon): > 100 µM
TGI (NCI/ADR-RES ovarian): > 100 µM
TGI (SK-OV-3 ovarian): > 100 µM
TGI (OVCAR-4 ovarian): > 100 µM
TGI (SK-MEL-2 melanoma): > 100 µM
TGI (COLO 205 colon): > 100 µM
TGI (HS 578T breast): > 100 µM
TGI (MALME-3M melanoma): > 100 µM
TGI (OVCAR-8 ovarian): > 100 µM
TGI (IGROV1 ovarian): > 100 µM
TGI (M14 melanoma): > 100 µM
TGI (MCF7 breast): > 100 µM
TGI (SR leukemia): > 100 µM
TGI (NCI-H226 lung): > 100 µM
TGI (K-562 leukemia): > 100 µM
TGI (UO-31 renal): > 100 µM
TGI (U251 CNS): > 100 µM
TGI (TK-10 renal): > 100 µM
TGI (HOP-62 NSCLC): > 100 µM
TGI (T-47D breast): > 100 µM
TGI (HCT-15 colon): > 100 µM
TGI (SK-MEL-5 melanoma): > 100 µM
TGI (PC-3 prostate): > 100 µM
TGI (SW-620 colon): > 100 µM
TGI (MDA-N): > 100 µM
TGI (SNB-75 CNS): > 100 µM
TGI (RXF 393 renal): > 100 µM
TGI (SF-295 CNS): > 100 µM
TGI (OVCAR-3 ovarian): > 100 µM
TGI (SN12C renal): > 100 µM
TGI (CAKI-1 renal): > 100 µM
TGI (OVCAR-5 ovarian): > 100 µM
TGI (MOLT-4 leukemia): > 100 µM
TGI (LOX IMVI melanoma): > 100 µM
TGI (HT29 colon): > 100 µM
TGI (DU-145 prostate): > 100 µM
TGI (RPMI-8226 leukemia): > 100 µM
TGI (MDA-MB-435): > 100 µM

COC(=O)[C@]12CC[C@H]3CN(C(=O)OCc4ccccc4)[C@H]([C@H]31)[C@H](c1ccccc1)N2
TGI (KM12 colon): > 100 µM
TGI (SK-MEL-28 melanoma): > 100 µM
TGI (BT-549 breast): > 100 µM
TGI (SNB-19 CNS): > 100 µM
TGI (EKVX NSCLC): > 100 µM
TGI (UACC-62 melanoma): > 100 µM
TGI (SF-268 CNS): > 100 µM
TGI (NCI-H460 lung): > 100 µM
TGI (CCRF-CEM leukemia): > 100 µM
TGI (MDA-MB-231 breast): > 100 µM
TGI (UACC-257 melanoma): > 100 µM
TGI (HCT-116 colon): > 100 µM
TGI (A498 renal): > 100 µM
TGI (HOP-92 NSCLC): > 100 µM
TGI (NCI-H23 lung): > 100 µM
TGI (HCC-2998 colon): > 100 µM
TGI (NCI/ADR-RES ovarian): > 100 µM
TGI (SK-OV-3 ovarian): > 100 µM
TGI (OVCAR-4 ovarian): > 100 µM
TGI (786-0 renal): > 100 µM
TGI (SK-MEL-2 melanoma): > 100 µM
TGI (COLO 205 colon): > 100 µM
TGI (HS 578T breast): > 100 µM
TGI (OVCAR-8 ovarian): > 100 µM
TGI (NCI-H522 lung): > 100 µM
TGI (HL-60(TB) leukemia): > 100 µM
TGI (IGROV1 ovarian): > 100 µM
TGI (M14 melanoma): > 100 µM
TGI (MCF7 breast): > 100 µM
TGI (SR leukemia): > 100 µM
TGI (NCI-H226 lung): > 100 µM
TGI (K-562 leukemia): > 100 µM
TGI (UO-31 renal): > 100 µM
TGI (U251 CNS): > 100 µM
TGI (TK-10 renal): > 100 µM
TGI (HOP-62 NSCLC): > 100 µM
TGI (T-47D breast): > 100 µM
TGI (HCT-15 colon): > 100 µM
TGI (SK-MEL-5 melanoma): 58.3 µM
TGI (PC-3 prostate): > 100 µM
TGI (SW-620 colon): > 100 µM
TGI (MDA-N): > 100 µM
TGI (A549 NSCLC): > 100 µM
TGI (SNB-75 CNS): > 100 µM
TGI (ACHN renal): > 100 µM
TGI (RXF 393 renal): > 100 µM
TGI (SF-295 CNS): > 100 µM
TGI (OVCAR-3 ovarian): > 100 µM
TGI (SN12C renal): > 100 µM
TGI (CAKI-1 renal): > 100 µM
TGI (OVCAR-5 ovarian): > 100 µM
TGI (SF-539 CNS): > 100 µM
TGI (MOLT-4 leukemia): > 100 µM
TGI (LOX IMVI melanoma): > 100 µM
TGI (HT29 colon): > 100 µM
TGI (DU-145 prostate): > 100 µM
TGI (RPMI-8226 leukemia): > 100 µM
TGI (MDA-MB-435): > 100 µM
